Measurements published in PubChem BioAssay (NCI).
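How tested: cells in 96-well plates exposed to compound for 48 hours at five concentrations. Definition used: TGI = concentration required for complete inhibition of growth.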

Legend:
Experiment in all cases: NCI tumour cell line growth inhibition, 48 h
[1] = system: A549 NSCLC
[2] = system: ACHN renal
[3] = system: CCRF-CEM leukemia
[4] = system: EKVX NSCLC
[5] = system: HCT-116 colon
[6] = system: HL-60(TB) leukemia
[7] = system: HT29 colon
[8] = system: IGROV1 ovarian
[9] = system: LOX IMVI melanoma
[10] = system: MDA-N
[11] = system: NCI-H226 lung
[12] = system: OVCAR-8 ovarian
[13] = system: PC-3 prostate
[14] = system: RXF 393 renal
[15] = system: SK-MEL-5 melanoma
[16] = system: SN12C renal
[17] = system: T-47D breast
[18] = system: TK-10 renal
[19] = system: U251 CNS
[20] = system: RPMI-8226 leukemia

| SMILES | TGI [1] [µM] | TGI [2] [µM] | TGI [3] [µM] | TGI [4] [µM] | TGI [5] [µM] | TGI [6] [µM] | TGI [7] [µM] | TGI [8] [µM] | TGI [9] [µM] | TGI [10] [µM] | TGI [11] [µM] | TGI [12] [µM] | TGI [13] [µM] | TGI [14] [µM] | TGI [15] [µM] | TGI [16] [µM] | TGI [17] [µM] | TGI [18] [µM] | TGI [19] [µM] | TGI [20] [µM] |
| --- | --- | --- | --- | --- | --- | --- | --- | --- | --- | --- | --- | --- | --- | --- | --- | --- | --- | --- | --- | --- |
| COc1cc(C2=C(c3cc(OC)c4ccccc4c3OC)C(=O)c3ccccc3C2=O)c(OC)c2ccccc12 | > 100 | > 100 | > 100 | > 100 | > 100 | > 100 | > 100 | > 100 | > 100 | > 100 | > 100 | > 100 | > 100 | > 100 | > 100 | > 100 | > 100 | > 100 | > 100 |  |
| CCOC(=O)c1nnsc1NC(=O)Nc1ccc(Cc2ccc(NC(=O)Nc3snnc3C(=O)OCC)cc2)cc1 | > 100 | > 100 | > 100 | > 100 | > 100 |  | > 100 | > 100 |  | > 100 | > 100 | 76.6 | > 100 | 70.5 | 93 | > 100 | > 100 | > 100 | > 100 | > 100 |
| COc1ccc([C@H]2CC(=O)C[C@H](c3ccc(OC)cc3)C23C(=O)c2ccccc2C3=O)cc1 | > 100 | > 100 | > 100 | > 100 | > 100 |  | > 100 | > 100 | > 100 | 5.35 | > 100 | > 100 | > 100 | 16 | 17.4 | > 100 | > 100 | > 100 | > 100 | > 100 |
| Cc1ccc(C2=Nn3c(nc4sc(C)c(C)c4c3=O)SC2)cc1 | > 100 | > 100 |  | > 100 | > 100 | > 100 | > 100 | > 100 | > 100 | > 100 | > 100 | > 100 | > 100 | > 100 | > 100 | > 100 | > 100 | 85.3 | > 100 | > 100 |
| CCCc1cc(=O)oc2c3c(c4c(c12)OC(C)(C)CC4)O[C@@H](C)[C@H](C)[C@H]3O | 25.7 |  | 17.8 | 29.4 | 22.2 |  | 20.7 | 32.7 | 30 | 16.4 | 31.6 | 29.9 | 15.5 | 27.1 | 20.3 | 18.9 | 23.2 |  | 29.6 | 8.74 |
| CC1OC(OC2C(O)COC(OC3C(C)OC(OC4C(OC(=O)[C@]56CCC(C)(C)C[C@@H]5C5=CCC7[C@@]8(C)C[C@H](O)[C@H](OC9OC(CO)C(O)C(OC%10OC(CO)C(O)C(O)C%10O)C9O)[C@@](C)(CO)[C@@H]8CC[C@@]7(C)[C@]5(C)CC6)OCC(O)C4O)C(O)C3OC3OCC(O)(CO)C3O)C2O)C(O)C(O)C1O (stereo not given in full) | 13.9 | 19.7 | 15.4 | 13.2 | 32.2 |  |  |  | 17.8 | 19.2 | 23.4 | 18.9 | 13.7 | 17.2 | 15.8 | 12 | 25 | 22.1 | 20.6 | 50 |
| Cc1cc(-c2cccc3ccccc23)c(C#N)c(=S)n1C1OC(CO)C(O)C(O)C1O (stereo not given) | > 100 | > 100 | > 100 | > 100 | > 100 | > 100 | > 100 | > 100 | > 100 | > 100 | > 100 | > 100 | > 100 | > 100 | > 100 | > 100 | > 100 | > 100 |  |  |
| CC(=O)OC/C=C/[C@H](O[Si](C)(C)C(C)(C)C)[C@@H](O)/C=C/COC(C)=O | > 100 | > 100 | 52 | > 100 | > 100 |  | > 100 | > 100 | > 100 | > 100 | > 100 | > 100 | > 100 | > 100 | > 100 | > 100 | > 100 | > 100 | > 100 | 43.7 |
| CC(Cc1ccccc1)Nc1ncnc2c1ncn2C1OC(CO)CC1O (stereo not given) | > 100 | > 100 | > 100 | > 100 | > 100 |  | > 100 | > 100 | > 100 | > 100 | > 100 | > 100 | > 100 | > 100 | > 100 | > 100 | > 100 | > 100 | > 100 | > 100 |
| COc1c2cc(C(C)(C)C)cc1Cc1cccc(c1OCc1cccc([N+](=O)[O-])c1)Cc1cc(C(C)(C)C)cc(c1OC)Cc1cccc(c1OCc1cccc([N+](=O)[O-])c1)Cc1cc(C(C)(C)C)cc(c1OC)Cc1cccc(c1OCc1cccc([N+](=O)[O-])c1)C2 | > 50 | > 50 | > 5 | > 50 | > 50 | > 50 | > 50 | > 50 |  | > 50 |  | > 50 | > 50 | > 50 | > 50 | > 50 | > 50 |  | > 50 | > 50 |
| CN1CC[C@]23c4c5ccc(O)c4O[C@H]2C(O)CC[C@@]3(O)[C@H]1C5 (stereo not given in full) | > 100 | > 100 |  | > 100 | > 100 | > 100 | > 100 | > 100 | > 100 | > 100 | > 100 | > 100 | > 100 |  | > 100 | > 100 | > 100 | > 100 | > 100 | > 100 |
